Results as given in article PMC12152147, “DDB1 engagement defines the selectivity of S656 analogs for cyclin K degradation over CDK inhibition” (EMBO Reports, 2025).
“And” between values parts separate entries of the source, which are not always exact repeats. Identical values can stand only once. Like-named read-outs stand apart in the source and are kept apart here. One block for each molecule: values may come before it.

Key:
primary AML specimens = assay: Dose-response assays in primary AML specimens (6 days, CellTiterGlo); format: cell-based, human; details: 6 days, read-out: IC50
Method in brief: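 Primary AML cells in IMDM/15% BIT with SCF, FLT3L, IL3, G-CSF, SR1 and UM729 were exposed to 8-point 1:4 dilutions (10 μM to 0.5 nM) for 6 days. Viability came from CellTiterGlo luminescence, with % inhibition versus DMSO (0.1%) fitted by nonlinear regression.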

[1] = system: OCI-AML5 cells expressing shRNA targeting CUL4A or CUL4B; assay: Dose response in OCI-AML5 expressing shRNAs targeting CUL4A, CUL4B or control; format: cell-based, H. sapiens
CDK12/Cyclin K = biological target: T1, CDK12/Cyclin K (Homo sapiens, UniProt Q9NYV4); assay: CDK12/CyclinK in vitro kinase assay (BPS kit, Kinase Glo MAX); format: biochemical; details: for in vitro inhibition of CDK12/Cyclin K activity: in % (unit assumed); for IC50: read-out: IC50, in vitro inhibition of CDK12/Cyclin K activity
T1 construct: purchased BPS Bioscience 78298
Experimental: (§1) Kinase activity was assessed using the kinase assay kits from BPS Bioscience for CDK1, CDK9 and CDK12 with Kinase Glo MAX in duplicates. Compounds were tested at a single concentration of 1 μM for CDK1 and CDK9 activity, and in a dilution ranging from 0.64 nM to 50 μM for CDK12 activity. Chemiluminescence was read using the Neo Synergy BioTek plate reader.

CDK9/CyclinT = biological target: T2, CDK9/CyclinT (Homo sapiens, UniProt P50750); assay: CDK9/CyclinT in vitro kinase activity, single concentration 1 μM; format: biochemical; details: single concentration 1 μM
T2 construct: purchased BPS Bioscience 79628
Experimental: as §1

cyclin KeGFP = assay: Cyclin KeGFP reporter system (eGFP/mCherry MFI by flow cytometry);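 as to % degradation cyclin K-eGFP: 10 μM compound for 3 h relative to DMSO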; format: cell-based, H. sapiens; details: for MFI of cyclin KeGFP over mCherry: OCI-AML5 G7 clone, 3 h, 10 μM, normalized to DMSO (=100)
Method in brief: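 Degradation read as eGFP-to-mCherry MFI ratio relative to DMSO controls, from flow cytometry of the selected G7 clone of OCI-AML5 cells transduced with the cyclin KeGFP reporter.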

CDK1 = biological target: T3, CDK1 (Homo sapiens, UniProt P06493); assay: CDK1 in vitro kinase activity, single concentration 1 μM; format: biochemical; details: single concentration 1 μM
T3 construct: purchased BPS Bioscience 79597
Experimental: as §1

OCI-AML5 cells = assay: Dose-response proliferative assay in OCI-AML5 (4 days, CellTiterGlo); format: cell-based, H. sapiens; details: OCI-AML5 cells; read-out: IC50 in AML5
Method in brief: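 Viability assessed after 4 days of compound exposure at 37 °C, 5% CO2. Compounds tested as 8 dilutions (1:4, 10 μM to 0.5 nM) on 300 OCI-AML5 cells/well grown in αMEM with 10% heat-inactivated FBS and 10 ng/mL GM-CSF.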

[2] = system: OCI-AML5 cells expressing shRNAs targeting CDK1, 2, 4, 7, 9, cyclin K; assay: Dose response in OCI-AML5 expressing shRNAs targeting CDK1, 2, 4, 7, 9, cyclin K or control; format: cell-based, H. sapiens; details: for IC50: OCI-AML5, 4 days

T1 sequence (Q9NYV4 whole entry): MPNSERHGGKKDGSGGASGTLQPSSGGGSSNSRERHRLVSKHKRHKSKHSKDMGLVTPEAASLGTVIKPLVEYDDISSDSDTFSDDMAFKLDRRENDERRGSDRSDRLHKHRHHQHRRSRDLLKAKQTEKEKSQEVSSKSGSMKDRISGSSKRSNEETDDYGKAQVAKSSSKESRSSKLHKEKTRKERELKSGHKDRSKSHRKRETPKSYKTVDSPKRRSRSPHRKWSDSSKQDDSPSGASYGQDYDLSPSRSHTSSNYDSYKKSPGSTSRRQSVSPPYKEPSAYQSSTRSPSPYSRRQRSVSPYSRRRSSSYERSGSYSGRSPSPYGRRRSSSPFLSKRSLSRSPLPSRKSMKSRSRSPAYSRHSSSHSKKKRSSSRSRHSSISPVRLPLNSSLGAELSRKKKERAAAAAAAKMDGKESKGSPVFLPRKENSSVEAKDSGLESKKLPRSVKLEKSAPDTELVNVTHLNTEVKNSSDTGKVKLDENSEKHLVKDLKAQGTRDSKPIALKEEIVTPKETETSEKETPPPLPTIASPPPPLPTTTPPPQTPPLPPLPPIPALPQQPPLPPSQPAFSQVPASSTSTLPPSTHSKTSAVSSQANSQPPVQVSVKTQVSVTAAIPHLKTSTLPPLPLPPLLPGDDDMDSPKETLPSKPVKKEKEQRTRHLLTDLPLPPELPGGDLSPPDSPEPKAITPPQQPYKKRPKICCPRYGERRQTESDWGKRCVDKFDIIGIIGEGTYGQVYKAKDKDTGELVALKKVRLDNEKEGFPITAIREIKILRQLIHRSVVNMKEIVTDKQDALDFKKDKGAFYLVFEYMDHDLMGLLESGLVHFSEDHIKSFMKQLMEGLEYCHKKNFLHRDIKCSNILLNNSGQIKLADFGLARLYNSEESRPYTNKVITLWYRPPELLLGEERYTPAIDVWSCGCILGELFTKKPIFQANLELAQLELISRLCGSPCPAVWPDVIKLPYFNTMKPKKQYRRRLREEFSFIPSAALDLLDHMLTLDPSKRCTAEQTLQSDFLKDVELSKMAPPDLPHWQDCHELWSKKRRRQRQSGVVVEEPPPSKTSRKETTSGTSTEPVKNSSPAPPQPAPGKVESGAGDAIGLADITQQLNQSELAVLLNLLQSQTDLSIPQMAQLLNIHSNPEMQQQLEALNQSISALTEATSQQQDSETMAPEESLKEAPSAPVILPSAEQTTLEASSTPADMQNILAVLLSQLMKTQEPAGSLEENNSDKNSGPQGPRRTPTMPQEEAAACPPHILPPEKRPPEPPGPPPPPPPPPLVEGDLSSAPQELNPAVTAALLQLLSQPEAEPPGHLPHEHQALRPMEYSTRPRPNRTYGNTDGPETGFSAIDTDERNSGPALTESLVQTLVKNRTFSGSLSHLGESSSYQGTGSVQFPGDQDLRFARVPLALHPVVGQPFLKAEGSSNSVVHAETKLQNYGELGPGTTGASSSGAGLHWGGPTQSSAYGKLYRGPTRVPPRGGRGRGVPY
T1 sequence (O75909 whole entry partner): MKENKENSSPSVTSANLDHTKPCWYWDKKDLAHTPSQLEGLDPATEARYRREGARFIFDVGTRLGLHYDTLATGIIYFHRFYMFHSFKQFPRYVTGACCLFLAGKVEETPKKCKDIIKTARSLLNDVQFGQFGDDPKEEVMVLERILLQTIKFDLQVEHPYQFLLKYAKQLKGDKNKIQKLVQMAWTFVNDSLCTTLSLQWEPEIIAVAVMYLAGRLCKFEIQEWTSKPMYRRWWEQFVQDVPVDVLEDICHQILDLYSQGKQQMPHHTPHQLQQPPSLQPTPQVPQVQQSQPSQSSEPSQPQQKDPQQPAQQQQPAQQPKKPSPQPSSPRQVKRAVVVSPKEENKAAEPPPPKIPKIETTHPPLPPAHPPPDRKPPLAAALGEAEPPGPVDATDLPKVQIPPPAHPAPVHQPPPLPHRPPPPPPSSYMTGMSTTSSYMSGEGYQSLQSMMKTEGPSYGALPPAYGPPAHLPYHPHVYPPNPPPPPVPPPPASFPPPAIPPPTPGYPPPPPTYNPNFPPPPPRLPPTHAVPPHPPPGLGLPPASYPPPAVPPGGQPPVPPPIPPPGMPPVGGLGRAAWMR
T3 sequence (P06493 whole entry): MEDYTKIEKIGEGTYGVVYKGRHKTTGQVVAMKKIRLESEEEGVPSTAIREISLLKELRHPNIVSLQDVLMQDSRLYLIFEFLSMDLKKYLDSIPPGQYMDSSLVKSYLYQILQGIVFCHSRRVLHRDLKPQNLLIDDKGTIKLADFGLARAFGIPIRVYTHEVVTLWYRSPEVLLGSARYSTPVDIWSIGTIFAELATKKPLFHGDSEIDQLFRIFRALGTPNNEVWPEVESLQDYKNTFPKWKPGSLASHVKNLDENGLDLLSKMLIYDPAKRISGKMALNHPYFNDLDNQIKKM
T3 sequence (P14635 whole entry partner): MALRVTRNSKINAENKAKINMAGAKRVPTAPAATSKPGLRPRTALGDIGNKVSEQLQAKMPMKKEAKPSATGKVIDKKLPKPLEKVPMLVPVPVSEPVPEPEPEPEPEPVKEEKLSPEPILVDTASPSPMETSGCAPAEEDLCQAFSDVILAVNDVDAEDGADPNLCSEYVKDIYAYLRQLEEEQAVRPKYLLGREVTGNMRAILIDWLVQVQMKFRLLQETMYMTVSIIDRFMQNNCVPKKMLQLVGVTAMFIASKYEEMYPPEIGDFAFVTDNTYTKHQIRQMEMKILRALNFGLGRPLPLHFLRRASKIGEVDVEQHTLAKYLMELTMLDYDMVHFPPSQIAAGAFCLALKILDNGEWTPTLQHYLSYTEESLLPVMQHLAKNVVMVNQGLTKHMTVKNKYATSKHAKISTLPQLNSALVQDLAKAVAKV
T2 sequence (P50750 whole entry): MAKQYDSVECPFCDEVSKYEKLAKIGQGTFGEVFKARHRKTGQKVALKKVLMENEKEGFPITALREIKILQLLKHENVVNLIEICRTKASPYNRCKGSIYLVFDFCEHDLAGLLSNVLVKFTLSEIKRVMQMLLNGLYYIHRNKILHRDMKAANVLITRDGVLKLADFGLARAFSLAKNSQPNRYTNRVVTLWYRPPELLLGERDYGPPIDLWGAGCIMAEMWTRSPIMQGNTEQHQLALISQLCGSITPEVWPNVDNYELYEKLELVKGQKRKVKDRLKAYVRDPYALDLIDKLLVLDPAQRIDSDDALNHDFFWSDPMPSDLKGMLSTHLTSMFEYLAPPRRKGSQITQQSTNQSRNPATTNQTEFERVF
T2 sequence (O60563 whole entry partner): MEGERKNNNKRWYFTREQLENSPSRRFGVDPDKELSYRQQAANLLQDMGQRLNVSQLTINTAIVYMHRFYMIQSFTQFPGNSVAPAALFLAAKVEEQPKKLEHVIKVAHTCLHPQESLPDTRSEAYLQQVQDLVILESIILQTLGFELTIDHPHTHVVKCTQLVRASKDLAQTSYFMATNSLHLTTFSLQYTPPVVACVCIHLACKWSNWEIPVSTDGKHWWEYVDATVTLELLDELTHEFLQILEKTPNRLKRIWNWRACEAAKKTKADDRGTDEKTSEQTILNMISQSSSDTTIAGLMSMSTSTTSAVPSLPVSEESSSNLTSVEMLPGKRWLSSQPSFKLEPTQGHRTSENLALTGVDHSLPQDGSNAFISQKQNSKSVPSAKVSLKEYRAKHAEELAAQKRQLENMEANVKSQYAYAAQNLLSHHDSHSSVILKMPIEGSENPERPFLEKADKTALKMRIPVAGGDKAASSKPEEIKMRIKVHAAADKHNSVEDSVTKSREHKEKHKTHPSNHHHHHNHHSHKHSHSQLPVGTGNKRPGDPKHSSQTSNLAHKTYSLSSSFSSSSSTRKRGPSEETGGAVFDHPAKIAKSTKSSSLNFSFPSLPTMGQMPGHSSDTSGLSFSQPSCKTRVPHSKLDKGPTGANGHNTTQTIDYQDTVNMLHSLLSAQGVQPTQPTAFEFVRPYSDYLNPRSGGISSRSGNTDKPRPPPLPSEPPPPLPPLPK

in vitro inhibition of CDK12/Cyclin K activity (CDK12/Cyclin K; Log10 (uM) 1.69897): 45.8 and 46.66 and 37.27
IC50 (CDK12/Cyclin K): > 50000 nM
% CDK9 inhibition (CDK9/CyclinT): 0%
% CDK1 inhibition (CDK1): 0%
IC50 (OCI-AML5 cells): 1070 nM
IC50 ([2]; read-out: IC50, sh CDK1): 1500 nM and 2300 nM and 2010 nM
IC50 ([2]; read-out: IC50, sh CDK2): 1310 nM and 1750 nM and 2460 nM
IC50 ([2]; read-out: IC50, sh CDK4): 1240 nM and 1300 nM and 1980 nM
IC50 ([2]; read-out: IC50, sh CDK7): 1090 nM and 1800 nM and 1930 nM
IC50 ([2]; read-out: IC50, sh CDK9): 1110 nM and 1360 nM and 1320 nM
IC50 ([2]; read-out: IC50, sh Cyclin K): 429 nM and 562 nM and 546 nM
IC50 ([2]; read-out: IC50, sh ctrl): 1070 nM and 1220 nM and 1040 nM
Structure (SMILES): Cc1cccc(Nc2nc(CC(=O)Nc3ncc(C)s3)cs2)n1 [HQ461]
IC50 (primary AML specimens; primary AML specimen 03H109): 883 nM
IC50 (primary AML specimens; primary AML specimen 04H055): 2010 nM
IC50 (primary AML specimens; primary AML specimen 04H096): 1220 nM
IC50 (primary AML specimens; primary AML specimen 04H138): 2260 nM
IC50 (primary AML specimens; primary AML specimen 05H113): 974 nM
IC50 (primary AML specimens; primary AML specimen 05H149): 1170 nM
IC50 (primary AML specimens; primary AML specimen 05H193): 1260 nM
IC50 (primary AML specimens; primary AML specimen 06H088): 1320 nM
IC50 (primary AML specimens; primary AML specimen 06H117): 1200 nM
IC50 (primary AML specimens; primary AML specimen 06H151): 677 nM
IC50 (primary AML specimens; primary AML specimen 07H003): 2350 nM
IC50 (primary AML specimens; primary AML specimen 07H131): 2900 nM
IC50 (primary AML specimens; primary AML specimen 07H144): 983 nM
IC50 (primary AML specimens; primary AML specimen 07H155): 2460 nM
IC50 (primary AML specimens; primary AML specimen 08H018): 2240 nM
IC50 (primary AML specimens; primary AML specimen 08H021): 1030 nM
IC50 (primary AML specimens; primary AML specimen 08H056): 2300 nM
IC50 (primary AML specimens; primary AML specimen 08H063): 2420 nM
IC50 (primary AML specimens; primary AML specimen 08H085): 1050 nM
IC50 (primary AML specimens; primary AML specimen 08H108): 2180 nM
IC50 (primary AML specimens; primary AML specimen 08H118): 873 nM
IC50 (primary AML specimens; primary AML specimen 09H016): 869 nM
IC50 (primary AML specimens; primary AML specimen 09H070): 2340 nM
IC50 (primary AML specimens; primary AML specimen 10H014): 529 nM
IC50 (primary AML specimens; primary AML specimen 10H046): 1050 nM
IC50 (primary AML specimens; primary AML specimen 10H107): 1400 nM
IC50 (primary AML specimens; primary AML specimen 10H127): 1920 nM
IC50 (primary AML specimens; primary AML specimen 10H161): 1220 nM
IC50 (primary AML specimens; primary AML specimen 10H174): 950 nM
IC50 (primary AML specimens; primary AML specimen 11H008): 1540 nM
IC50 (primary AML specimens; primary AML specimen 11H019): 1320 nM
IC50 (primary AML specimens; primary AML specimen 11H170): 3060 nM
IC50 (primary AML specimens; primary AML specimen 11H217): 1690 nM
IC50 (primary AML specimens; primary AML specimen 11H232): 1460 nM
IC50 (primary AML specimens; primary AML specimen 12H033): 2450 nM
IC50 (primary AML specimens; primary AML specimen 12H055): 1470 nM
IC50 (primary AML specimens; primary AML specimen 12H148): 1880 nM
IC50 (primary AML specimens; primary AML specimen 13H053): 2280 nM
IC50 (primary AML specimens; primary AML specimen 15H045): 931 nM
IC50 (primary AML specimens; primary AML specimen 17H065): 1420 nM
Ratio shCUL4A/shCTRL ([1]; ratio of IC50 in shCUL4A vs shCTRL OCI-AML5 cells): 4.25
MFI of cyclin KeGFP over mCherry (cyclin KeGFP): 20.9 and 23.4 and 22.9 and 21.1 and 21.0
% degradation cyclin K-eGFP (cyclin KeGFP; cyclin K-eGFP reporter): 79%
Class ([2]; class from shRNA IC50 profile and cyclin K-eGFP degradation): 1

in vitro inhibition of CDK12/Cyclin K activity (CDK12/Cyclin K; Log10 (uM) 0.30103): 95.76 and 74.16 and 142.36
in vitro inhibition of CDK12/Cyclin K activity (CDK12/Cyclin K; Log10 (uM) -1.09691): 64.02 and 71.5 and 108.97
in vitro inhibition of CDK12/Cyclin K activity (CDK12/Cyclin K; Log10 (uM) -1.79588): 50.36 and 51.42 and 41.9
in vitro inhibition of CDK12/Cyclin K activity (CDK12/Cyclin K; Log10 (uM) -2.49485): 37.5 and 37.15 and 28.34
IC50 (CDK12/Cyclin K): 29 nM
Structure (SMILES): CN(C)C/C=C/C(=O)Nc1ccc(C(=O)N2CCC[C@@H](Nc3ncc(Cl)c(-c4c[nH]c5ccccc45)n3)C2)cc1 [THZ531]
IC50 (primary AML specimens; Homo sapiens, 144 h, primary AML specimen 03H109): 48.9 nM
IC50 (primary AML specimens; Homo sapiens, 144 h, primary AML specimen 04H055): 45.2 nM
IC50 (primary AML specimens; Homo sapiens, 144 h, primary AML specimen 04H096): 44.4 nM
IC50 (primary AML specimens; Homo sapiens, 144 h, primary AML specimen 04H138): 70.6 nM
IC50 (primary AML specimens; Homo sapiens, 144 h, primary AML specimen 05H113): 70.4 nM
IC50 (primary AML specimens; Homo sapiens, 144 h, primary AML specimen 05H149): 411 nM
IC50 (primary AML specimens; Homo sapiens, 144 h, primary AML specimen 05H193): 73.1 nM
IC50 (primary AML specimens; Homo sapiens, 144 h, primary AML specimen 06H088): 50 nM
IC50 (primary AML specimens; Homo sapiens, 144 h, primary AML specimen 06H117): 42.8 nM
IC50 (primary AML specimens; Homo sapiens, 144 h, primary AML specimen 06H151): 103 nM
IC50 (primary AML specimens; Homo sapiens, 144 h, primary AML specimen 07H003): 49.5 nM
IC50 (primary AML specimens; Homo sapiens, 144 h, primary AML specimen 07H131): 734 nM
IC50 (primary AML specimens; Homo sapiens, 144 h, primary AML specimen 07H144): 53.8 nM
IC50 (primary AML specimens; Homo sapiens, 144 h, primary AML specimen 07H155): 125 nM
IC50 (primary AML specimens; Homo sapiens, 144 h, primary AML specimen 08H018): 292 nM
IC50 (primary AML specimens; Homo sapiens, 144 h, primary AML specimen 08H021): 27.7 nM
IC50 (primary AML specimens; Homo sapiens, 144 h, primary AML specimen 08H056): 170 nM
IC50 (primary AML specimens; Homo sapiens, 144 h, primary AML specimen 08H063): 67.2 nM
IC50 (primary AML specimens; Homo sapiens, 144 h, primary AML specimen 08H085): 42.1 nM
IC50 (primary AML specimens; Homo sapiens, 144 h, primary AML specimen 08H108): 48.5 nM
IC50 (primary AML specimens; Homo sapiens, 144 h, primary AML specimen 08H118): 596 nM
IC50 (primary AML specimens; Homo sapiens, 144 h, primary AML specimen 09H016): 121 nM
IC50 (primary AML specimens; Homo sapiens, 144 h, primary AML specimen 09H070): 155 nM
IC50 (primary AML specimens; Homo sapiens, 144 h, primary AML specimen 10H014): 237 nM
IC50 (primary AML specimens; Homo sapiens, 144 h, primary AML specimen 10H046): 319 nM
IC50 (primary AML specimens; Homo sapiens, 144 h, primary AML specimen 10H107): 164 nM
IC50 (primary AML specimens; Homo sapiens, 144 h, primary AML specimen 10H127): 48.2 nM
IC50 (primary AML specimens; Homo sapiens, 144 h, primary AML specimen 10H161): 46.6 nM
IC50 (primary AML specimens; Homo sapiens, 144 h, primary AML specimen 10H174): 146 nM
IC50 (primary AML specimens; Homo sapiens, 144 h, primary AML specimen 11H008): 47.1 nM
IC50 (primary AML specimens; Homo sapiens, 144 h, primary AML specimen 11H019): 174 nM
IC50 (primary AML specimens; Homo sapiens, 144 h, primary AML specimen 11H170): 798 nM
IC50 (primary AML specimens; Homo sapiens, 144 h, primary AML specimen 11H217): 46.2 nM
IC50 (primary AML specimens; Homo sapiens, 144 h, primary AML specimen 11H232): 296 nM
IC50 (primary AML specimens; Homo sapiens, 144 h, primary AML specimen 12H033): 127 nM
IC50 (primary AML specimens; Homo sapiens, 144 h, primary AML specimen 12H055): 51.7 nM
IC50 (primary AML specimens; Homo sapiens, 144 h, primary AML specimen 12H148): 242 nM
IC50 (primary AML specimens; Homo sapiens, 144 h, primary AML specimen 13H053): 160 nM
IC50 (primary AML specimens; Homo sapiens, 144 h, primary AML specimen 15H045): 273 nM
IC50 (primary AML specimens; Homo sapiens, 144 h, primary AML specimen 17H065): 1080 nM
potency upon CUL4A or CUL4B downregulation (for SNS-032, THZ531 also DDB1 depletion) ([1]; OCI-AML5, 4 days): remained unaffected
MFI of cyclin KeGFP over mCherry (cyclin KeGFP): 103.0 and 93.3 and 92.2 and 93.5
